Assay results as given in ChEMBL document CHEMBL1201862, “PubChem BioAssay data set” (2004).
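Exposure lasted 48 hours, with cells grown in 96-well plates and compounds tested at five concentrations. GI50 marks 50% less growth.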 The source made the active and inactive calls. No stated cut-off is given here; in the data, active = GI50 up to about 1.1 µM and inactive = higher.

How the values were obtained:
Assay in all cases: NCI tumour cell line growth inhibition, 48 h
[1] = test system: MDA-MB-231
[2] = test system: HT-29
[3] = test system: UACC-62
[4] = test system: HOP-62
[5] = test system: CCRF-CEM
[6] = test system: MOLT-4
[7] = test system: NCI-H226
[8] = test system: MDA-N
[9] = test system: OVCAR-3
[10] = test system: U-251
[11] = test system: SK-MEL-5
[12] = test system: DU-145
[13] = test system: OVCAR-5
[14] = test system: Malme-3M
[15] = test system: SK-MEL-28
[16] = test system: 786-0
[17] = test system: PC-3
[18] = test system: SF-539
[19] = test system: A498

Compound | GI50 [1] | GI50 [2] | GI50 [3] | GI50 [4] | GI50 [5] | GI50 [6] | GI50 [7] | GI50 [8] | GI50 [9] | GI50 [10] | GI50 [11] | GI50 [12] | GI50 [13] | GI50 [14] | GI50 [15] | GI50 [16] | GI50 [17] | GI50 [18] | GI50 [19]
NC(=O)CN1CCN(c2nc(N3CCCC3)c3nc(Cl)c(NCc4ccccc4)nc3n2)CC1 | 10.8 µM (inactive) | 9.48 µM (inactive) | 9.2 µM (inactive) | 0.525 µM (active) | 13.8 µM (inactive) | 7.26 µM (inactive) | 11.8 µM (inactive) | 8.67 µM (inactive) | 8.39 µM (inactive) | 8.59 µM (inactive) | 8.45 µM (inactive) | 11.5 µM (inactive) | 10.1 µM (inactive) | 8.65 µM (inactive) | 9.46 µM (inactive) | 8.89 µM (inactive) | 11.8 µM (inactive) | 9.06 µM (inactive) | 
O/N=C1/CCCCCC1NO (stereo not drawn) | > 100 µM (inactive) | > 100 µM (inactive) | > 100 µM (inactive) | > 100 µM (inactive) |  | > 100 µM (inactive) | > 100 µM (inactive) | > 100 µM (inactive) | > 100 µM (inactive) | > 100 µM (inactive) | > 100 µM (inactive) | > 100 µM (inactive) | > 100 µM (inactive) | > 100 µM (inactive) | > 100 µM (inactive) | > 100 µM (inactive) | > 100 µM (inactive) | > 100 µM (inactive) | 
S=C(/N=c1\sc(Nc2ccc(Cl)cc2)nc2sc3c(c12)CCN(N1CCc2c(sc4nc(Nc5ccc(Cl)cc5)s/c(=N\C(=S)Nc5ccc(Cl)cc5)c24)C1)C3)Nc1ccc(Cl)cc1 | 18.6 µM (inactive) | 19 µM (inactive) | 22.4 µM (inactive) | 36.1 µM (inactive) |  | 67 µM (inactive) | 78.2 µM (inactive) | 17 µM (inactive) | 42.3 µM (inactive) | 25.1 µM (inactive) |  | 25.4 µM (inactive) | 26.7 µM (inactive) | > 100 µM (inactive) | 38.2 µM (inactive) | 18 µM (inactive) | 30.3 µM (inactive) | 17.9 µM (inactive) | 
Cc1ccc2nc3c(=O)[nH]c(=O)nc-3n(C)c2c1C | > 100 µM (inactive) | > 100 µM (inactive) | > 100 µM (inactive) | > 100 µM (inactive) | > 100 µM (inactive) | > 100 µM (inactive) | > 100 µM (inactive) | > 100 µM (inactive) | > 100 µM (inactive) | > 100 µM (inactive) | > 100 µM (inactive) | > 100 µM (inactive) | > 100 µM (inactive) | > 100 µM (inactive) | > 100 µM (inactive) | > 100 µM (inactive) | > 100 µM (inactive) | > 100 µM (inactive) | 
Cc1ccc(S(=O)(=O)N/N=C2\C=C[C@]3(CC2)C(=O)N(C)c2ccccc23)cc1 | > 100 µM (inactive) |  | > 100 µM (inactive) | > 100 µM (inactive) | > 100 µM (inactive) | > 100 µM (inactive) | 69 µM (inactive) | > 100 µM (inactive) | > 100 µM (inactive) | > 100 µM (inactive) | > 100 µM (inactive) | > 100 µM (inactive) | > 100 µM (inactive) |  | > 100 µM (inactive) | 33.5 µM (inactive) | > 100 µM (inactive) |  | > 100 µM (inactive)
O=C(NC1=C(Cl)C(=O)c2ccccc2C1=O)c1ccccc1 | 32.9 µM (inactive) | 29.3 µM (inactive) | 24.1 µM (inactive) | 85.3 µM (inactive) | 30.9 µM (inactive) | 20.1 µM (inactive) | 24.5 µM (inactive) | 5.04 µM (inactive) | 19.1 µM (inactive) | 27.8 µM (inactive) | 27.5 µM (inactive) | 55.1 µM (inactive) | 47.1 µM (inactive) | 16.9 µM (inactive) | 44.8 µM (inactive) | 45.4 µM (inactive) | 24.9 µM (inactive) | 50.6 µM (inactive) | 
